According to patent publication US9428487B2, “Heteroaromatic amides and thioamides as pesticides” (Bayer Intellectual Property GmbH, priority 2008, dated 2016):
Read-outs that look alike come from different tables or passages of the source.

Legend:
[1] = Determination of log P values by HPLC on reversed-phase column (formic acid method); type: physicochemical
Method in brief: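 Reversed-phase C18 HPLC per EEC Directive 79/831 Annex V.A8, pH 3.4, acetonitrile/water with formic acid, gradient 10% to 95% acetonitrile in 4.25 min. log P obtained from retention times by linear interpolation between successive unbranched alkan-2-ones (C3–C16) of known log P.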

[2] = test system: green peach aphid (Myzus persicae); experiment: Myzus test; type: in vivo; conditions: read-out: efficacy (aphids killed)
Method in brief: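 Active ingredient formulated in acetone/dimethylformamide with alkylaryl polyglycol ether emulsifier, diluted in emulsifier-containing water. Sprayed onto Chinese cabbage leaf discs carrying all aphid stages; % efficacy scored after set time (100% = all aphids dead).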

[3] = reversed-phase HPLC column (C 18), pH 3.4, HPLC, reversed-phase C 18, acidic range (pH 3.4), formic acid eluents, 55° C., read-out: logP (HCOOH)
[4] = application rate 500 g/ha, spray on Chinese cabbage leaf slices
[5] = HPLC, reversed-phase C 18, acidic range (pH 3.4), formic acid eluents, 55° C., read-out: logP (HCOOH)

| chromatographic logP [1, 3] | logP (HCOOH) ([1]; HPLC, reversed-phase C 18, acidic range (pH 3.4), formic acid eluents, 55° C.) | chromatographic logP ([1]; pH 7.5, pH=7.5, read-out: log P (pH=7.5)) | SMILES | pest or weed control at 500 g/ha [2, 4] [%] | chromatographic logP [1, 5] | pest or weed control at 500 g/ha ([2]; in Brassica rapa) [%] |
| --- | --- | --- | --- | --- | --- | --- |
| 1.47 |  |  | Cc1nc(-c2cccnc2)sc1C(=O)NC1CSC1 [Compound 194] | ≥ 70 |  |  |
| 1.5 |  |  | Cc1nc(-c2cccnc2)sc1C(=O)NC(C)C1CCCO1 (stereo not shown) [Compound 195] | ≥ 70 |  |  |
|  |  |  | COC(=O)N(C)NC(=O)c1sc(-c2cccnc2)nc1C [Compound 196] | ≥ 70 | 1.23 |  |
|  |  |  | CCOC(=O)N(C)NC(=O)c1sc(-c2cccnc2)nc1C [Compound 197] | ≥ 70 | 1.48 |  |
| 1.44 |  |  | CCC1(CC)NC(=O)N(NC(=O)c2sc(-c3cccnc3)nc2C)C1=O [Compound 199] | ≥ 70 |  |  |
| 1.01 |  |  | Cc1nc(-c2cccnc2)sc1C(=O)NN(C)Cc1ccccn1 [Compound 200] | ≥ 70 |  |  |
| 1.37 |  |  | Cc1nc(-c2cccnc2)sc1C(=O)NN1CCCC1 [Compound 201] | ≥ 70 |  |  |
| 1.39 |  |  | Cc1nc(-c2cccnc2)sc1C(=O)NN1CCCCC1 [Compound 202] | ≥ 70 |  |  |
| 1.23 |  |  | Cc1nc(-c2cccnc2)sc1C(=O)NN1CCOCC1 [Compound 203] | ≥ 70 |  |  |
| 1.11 |  |  | Cc1nc(-c2cccnc2)sc1C(=O)NN1CCOC1=O [Compound 204] | ≥ 70 |  |  |
| 2.39 | 2.38 |  | Cc1nc(-c2cccnc2)sc1C(=S)NCC(F)(F)F [Preparation Example 4] | ≥ 70 |  |  |
| 1.61 |  |  | Cc1nc(-c2cncnc2)sc1C(=O)NCC(F)(F)F [Preparation Example 5] | ≥ 70 |  |  |
| 0.85 |  | 0.85 | O=C(NCc1ncccn1)c1nnc(-c2cccnc2)s1 [Preparation Example 7] | ≥ 70 |  |  |
|  |  |  | CN(C)C(=O)c1nnc(-c2cccnc2)s1 [Preparation Example 8, N,N-dimethyl-5-pyridin-3-yl[1,3,4]thiadiazole-2-carboxamide] |  | 0.95 | ≥ 70 |

| SMILES | chromatographic logP [1, 3] | logP (HCOOH) ([1]; HPLC, reversed-phase C 18, acidic range (pH 3.4), formic acid eluents, 55° C.) | chromatographic logP ([1]; pH 7.5, pH=7.5, read-out: log P (pH=7.5)) | pest or weed control at 500 g/ha [2, 4] [%] | chromatographic logP [1, 5] | pest or weed control at 500 g/ha ([2]; in Brassica rapa) [%] |
| --- | --- | --- | --- | --- | --- | --- |
| Cc1nc(-c2cccnc2)sc1C(=O)NCC(F)(F)Cl [Preparation Example 1, N-(2-chloro-2,2-difluoroethyl)-4-methyl-2-pyridin-3-ylthiazole-5-carboxamide] | 1.84 |  |  |  |  | ≥ 70 |
| Cc1cc(C)nc(CNC(=O)c2cnc(-c3cccnc3)s2)n1 [Preparation Example 3] | 1.19 |  |  |  |  | ≥ 70 |
